Laboratory results reported in paper PMC6941148 (Journal of medicinal chemistry, 2019).

How the values were obtained:
MDR HIV-1 variant VSL20 = test: Cell-based antiviral assay; conditions: relative to corresponding isobutyl analogues 12 and 13
[1] = target: HIV-1 protease I84V variant (Human immunodeficiency virus type 1 group M subtype B, UniProt P12497, I572V/Q495K); assay type: biochemical
WT HIV-1 strain NL4-3 = test: Cell-based antiviral assay; conditions: relative to DRV

| SMILES | fold loss in potency against VSL20 compared to analogues 12 and 13 (MDR HIV-1 variant VSL20) | fold less active than DRV against wild-type HIV-1 (WT HIV-1 strain NL4-3) | further results |
| --- | --- | --- | --- |
| CC[C@H](C)CN(C[C@@H](O)[C@H](Cc1ccccc1)NC(=O)O[C@H]1CO[C@H]2OCC[C@H]21)S(=O)(=O)c1ccc([C@H](C)O)cc1 [Compound 14, (3R,3aS,6aR)-Hexahydrofuro[2,3-b]furan-3-yl ((2S,3R)-3-hydroxy-4-((4-((S)-1-hydroxyethyl)-N-((S)-2-methylbutyl)phenyl)sulfonamido)-1-phenylbutan-2-yl)carbamate] | 2 fold |  |  |
| CC[C@H](C)CN(C[C@@H](O)[C@H](Cc1ccccc1)NC(=O)O[C@H]1CO[C@H]2OCC[C@H]21)S(=O)(=O)c1ccc([C@@H](C)O)cc1 [Compound 15, (3R,3aS,6aR)-Hexahydrofuro[2,3-b]furan-3-yl ((2S,3R)-3-hydroxy-4-((4-((R)-1-hydroxyethyl)-N-((S)-2-methylbutyl)phenyl)sulfonamido)-1-phenylbutan-2-yl)carbamate] | 2 fold |  |  |
| CC(C)CN(C[C@@H](O)[C@H](Cc1ccccc1)NC(=O)O[C@H]1CO[C@H]2OCC[C@H]21)S(=O)(=O)c1ccc([C@H](O)CO)cc1 [Compound 23, (3R,3aS,6aR)-Hexahydrofuro[2,3-b]furan-3-yl ((2S,3R)-4-((4-((S)-1,2-dihydroxyethyl)-N-isobutylphenyl)sulfonamido)-3-hydroxy-1-phenylbutan-2-yl)carbamate] |  |  | fold less active against the I84V protease than the P2′ epimer 22 ([1]; I84V protease, relative to diastereoisomer 22): about 3 fold |
| CCC(CC)CN(C[C@@H](O)[C@H](Cc1ccccc1)NC(=O)O[C@H]1CO[C@H]2OCC[C@H]21)S(=O)(=O)c1ccc([C@@H](O)CO)cc1 [Compound 26, (3R,3aS,6aR)-Hexahydrofuro[2,3-b]furan-3-yl ((2S,3R)-4-((4-((R)-1,2-dihydroxyethyl)-N-(2-ethylbutyl)phenyl)sulfonamido)-3-hydroxy-1-phenylbutan-2-yl)carbamate] |  | 8 fold |  |
| CCC(CC)CN(C[C@@H](O)[C@H](Cc1ccccc1)NC(=O)O[C@H]1CO[C@H]2OCC[C@H]21)S(=O)(=O)c1ccc([C@H](O)CO)cc1 [Compound 27, (3R,3aS,6aR)-Hexahydrofuro[2,3-b]furan-3-yl ((2S,3R)-4-((4-((S)-1,2-dihydroxyethyl)-N-(2-ethylbutyl)phenyl)sulfonamido)-3-hydroxy-1-phenylbutan-2-yl)carbamate] |  | 8 fold | fold less potent against the protease variants tested than the (R)-epimer 26 ([1]; I84V and I50V/A71V variants, relative to 26): 2–3 fold |
